The values that follow come from article PMC12368815, “Targeting Cancer with New Morpholine-Benzimidazole-Oxadiazole Derivatives: Synthesis, Biological Evaluation, and Computational Insights” (ACS Omega, 2025).

The term IC50 denotes the concentration that gives 50% inhibition.

Data set [1] concerns NIH3T3 (healthy normal fibroblast cells). Put plainly: MTT cytotoxicity assay on NIH3T3 normal fibroblasts. It is filed as cell-based. As to conditions: Mus musculus, mean of four independent assays. The method, then: (§1) Compounds 5a–5j were evaluated for their anticancer activity via the MTT assay against the HT-29 cell line. […] Both the synthesized compounds and standards were tested across concentrations from 1000 to 0.49 μg/mL.
(§2) The cytotoxic effects of the compounds on colon cancer (HT29, ATCC HTB-38) and normal healthy fibroblast (NIH3T3, ATCC CRL-1658) cell lines were evaluated using the MTT assay. Based on the cytotoxicity data 5c, 5h and 5j stand out in terms of activity.
A general note: Tetrazolium dyes change colour on reduction, which living cells bring about.

In data set [2] the test system is HT-29 cell line (human colon cancer cell line). Put plainly: MTT cytotoxicity assay on HT-29 colon cancer cells. As to conditions: for IC50: Homo sapiens, HT-29, MTT, mean of four independent assays, read-out: IC50 HT29; for Selectivity index (SI): NIH3T3 versus HT29. It is filed as cell-based. The protocol:
as §1, §2

The subject of a further data set is HT-29 cells. Nature of the data set: Annexin V-FITC/PI flow cytometry apoptosis analysis. The class given is cell-based, human. The note with it: HT29, compound at IC50 concentration, 24 h, mean of two repetitions. The text has this: Programmed cell death-apoptosis is a normal physiological process in healthy organisms that eliminates cells no longer needed. During apoptosis, phosphatidylserine (PS) in the cell membrane is translocated to the outer layer. The Annexin V protein included in the kit binds to this externalized PS, enabling its detection with FITC, a fluorescent marker. Annexin V can also bind to necrotic cells. In such cases, the cells are identified using “Ethidium Homodimer III (EthD-III) (or propidium iodide, PI)”. Flow cytometric assay kits use double-staining protocols to assess apoptosis by detecting differences in cell morphology through the binding efficiency of the Annexin–V complex to PS on the cell surface. , Apoptotic, Necrotic, and Healthy Cells Detection Kit [Available from (Apoptic necrotic kit)] used during flow cytometer analysis.
Briefly, HT-29 cells were plated in six-well plates following the manufacturer’s guidelines and exposed to the compounds at their IC50 concentrations for 24 h. Following treatment, cell suspensions were centrifuged at 1200 rpm for 5 min, and the resulting pellets were rinsed twice with 1 mL of cold phosphate-buffered saline. The assay kits were used according to the manufacturer’s instructions by transferring cells to the appropriate buffer solutions. For each sample, at least 10 000 cells were evaluated. Cell population fractions in various quadrants and gates were determined using quadrant and gate statistical analysis, with settings optimized based on comparison to the untreated control group.
To further investigate the mechanism underlying its anticancer effect, the ability of compound 5h to induce apoptosis was assessed using the Annexin V-FITC/PI dual staining method. The results are presented in Figure , where the data are shown in four quadrants corresponding to different cell populations: live (living) cells correspond to Q1-LL, early apoptotic cells to Q1-LR, late apoptotic cells to Q1-UR, and necrotic cells to Q1-UL.

Another data set concerns the target T1, VEGFR-2 enzyme (Homo sapiens, UniProt P35968).
T1 construct: purchased
Nature of the data set: In vitro VEGFR-2 enzyme inhibition assay kit. The class given is biochemical. The method, then:
The inhibitory effects of the synthesized compounds on the VEGFR-2 enzyme were assessed using an in vitro assay kit (Table ).

T1 sequence (P35968 20-1356): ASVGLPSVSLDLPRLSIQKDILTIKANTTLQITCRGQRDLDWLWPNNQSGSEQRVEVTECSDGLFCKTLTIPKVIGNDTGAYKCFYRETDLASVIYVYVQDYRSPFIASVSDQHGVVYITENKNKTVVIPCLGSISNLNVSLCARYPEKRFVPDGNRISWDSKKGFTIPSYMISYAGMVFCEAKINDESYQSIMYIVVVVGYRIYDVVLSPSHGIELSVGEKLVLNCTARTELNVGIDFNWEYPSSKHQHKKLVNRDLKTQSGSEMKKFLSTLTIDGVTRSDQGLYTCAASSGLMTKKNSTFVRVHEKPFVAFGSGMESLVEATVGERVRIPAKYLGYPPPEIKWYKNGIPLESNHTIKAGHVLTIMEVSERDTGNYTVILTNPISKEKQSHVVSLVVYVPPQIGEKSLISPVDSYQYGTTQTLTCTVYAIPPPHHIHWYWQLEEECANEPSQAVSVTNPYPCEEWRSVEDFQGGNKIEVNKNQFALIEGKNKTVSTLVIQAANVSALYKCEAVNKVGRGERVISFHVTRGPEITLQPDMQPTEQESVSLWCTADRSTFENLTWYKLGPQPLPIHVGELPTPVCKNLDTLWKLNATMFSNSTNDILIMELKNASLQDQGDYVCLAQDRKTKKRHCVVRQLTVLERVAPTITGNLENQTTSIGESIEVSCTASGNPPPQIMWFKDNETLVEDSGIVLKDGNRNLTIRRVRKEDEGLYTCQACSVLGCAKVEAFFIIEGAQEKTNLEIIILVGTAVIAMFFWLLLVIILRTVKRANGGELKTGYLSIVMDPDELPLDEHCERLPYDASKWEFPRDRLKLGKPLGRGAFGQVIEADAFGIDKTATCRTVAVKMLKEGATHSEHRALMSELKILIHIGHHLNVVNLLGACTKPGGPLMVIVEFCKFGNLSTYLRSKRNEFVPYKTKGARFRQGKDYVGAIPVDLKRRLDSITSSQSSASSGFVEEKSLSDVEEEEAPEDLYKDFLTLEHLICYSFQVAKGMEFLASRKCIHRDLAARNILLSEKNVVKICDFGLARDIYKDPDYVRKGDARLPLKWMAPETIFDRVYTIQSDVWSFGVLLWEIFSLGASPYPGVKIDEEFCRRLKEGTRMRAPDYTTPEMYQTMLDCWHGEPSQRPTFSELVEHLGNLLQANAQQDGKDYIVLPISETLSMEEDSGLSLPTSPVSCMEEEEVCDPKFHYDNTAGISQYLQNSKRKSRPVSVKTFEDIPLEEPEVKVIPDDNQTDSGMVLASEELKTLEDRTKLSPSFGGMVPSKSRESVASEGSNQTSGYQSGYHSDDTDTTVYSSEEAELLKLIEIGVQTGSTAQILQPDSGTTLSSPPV

As for `O=C(CSc1nnc(-c2ccc3nc(-c4ccc(N5CCOCC5)cc4)[nH]c3c2)o1)c1ccc([N+](=O)[O-])cc1` [5g, 2-(5-(2-(4-Morpholinophenyl)-1H-benzo[d]imidazol-6-yl-1,3,4-oxadiazol-2-yl)thio)-1-(4-nitrophenyl) Ethan-1-One], the IC50 in data set [1] was > 1000 µM; in data set [2], 260 ± 8.68 µM.

As to `O=C(CSc1nnc(-c2ccc3nc(-c4ccc(N5CCOCC5)cc4)[nH]c3c2)o1)c1ccc(Cl)cc1` [5e, 1-(4-Chlorophenyl)-2-((5-(2-(4-morpholinophenyl)-1H-benzo[d]imidazol-6-yl)-1,3,4-oxadiazol-2-yl) Thio) Ethan-1-One], the IC50 in data set [1] was 531 ± 8.1 µM. Besides, in data set [2], the IC50 is 104 ± 4.53 µM and the “Selectivity index (SI)” value was 5.12.

`Cc1ccc(C(=O)CSc2nnc(-c3ccc4nc(-c5ccc(N6CCOCC6)cc5)[nH]c4c3)o2)c(C)c1` [5i, 1-(2,4-Dimethylphenyl)-2-((5-(2-(4-morpholinophenyl)-1H-benzo[d]imidazol-6-yl)-1,3,4-oxadiazol-2-yl) Thio) Ethan-1-One] came in with an IC50 in data set [1] of 148 ± 3.99 µM. Further, in data set [2], the IC50 was 72.1 ± 4.61 µM and the “Selectivity index (SI)” value is recorded as 2.05.

In the case of `O=C(CSc1nnc(-c2ccc3nc(-c4ccc(N5CCOCC5)cc4)[nH]c3c2)o1)c1ccc(Cl)c(Cl)c1` [5h, 1-(3,4-Dichlorophenyl)-2-((5-(2-(4-morpholinophenyl)-1H-benzo[d]imidazol-6-yl)-1,3,4-oxadiazol-2-yl) Thio) Ethan-1-One], in the data set on HT-29 cells, the early apoptosis is listed as 2.05 ± 0.25%, the late apoptosis is 16.95 ± 2.85% and the necrosis stood at 12.2 ± 2.1%. Also, the IC50 at VEGFR-2 enzyme came out at 0.049 ± 0.002 µM. In addition, half-maximal inhibition in data set [1] (IC50) required 15.2 ± 0.987 µM. Moreover, in data set [2] (HT-29, compared to 5e), the “fold higher cytotoxic activity than compound 5e” value is on record as “approximately 33 fold”. For the same molecule, in data set [2], the IC50 amounted to 3.1 ± 0.979 µM and the “Selectivity index (SI)” value is 4.88.

Molecule `O=C(CSc1nnc(-c2ccc3nc(-c4ccc(N5CCOCC5)cc4)[nH]c3c2)o1)c1ccc(F)cc1` [5d, 1-(4-Fluorophenyl)-2-((5-(2-(4-morpholinophenyl)-1H-benzo[d]imidazol-6-yl)-1,3,4-oxadiazol-2-yl) Thio) Ethan-1-One] showed an IC50 in data set [1] of 163 ± 3.75 µM. In data set [2], the IC50 came out at 175 ± 5.92 µM and the “Selectivity index (SI)” value is reported as 0.93.

Take `COc1ccc(C(=O)CSc2nnc(-c3ccc4nc(-c5ccc(N6CCOCC6)cc5)[nH]c4c3)o2)cc1` [5c, 1-(4-Methoxyphenyl)-2-(5-(2-(4-morpholinophenyl)-1H-benzo[d]imidazol-6-yl-1,3,4-oxadiazol-2-yl) Thio) Ethan-1-One]: the IC50 at VEGFR-2 enzyme came out at 0.918 ± 0.027 µM; in data set [1], 10.4 ± 0.205 µM; in data set [2] it was 17.8 ± 1.77 µM. In data set [2], the “Selectivity index (SI)” value was found to be 0.59.

As for `O=C(CSc1nnc(-c2ccc3nc(-c4ccc(N5CCOCC5)cc4)[nH]c3c2)o1)c1ccc(Br)cc1` [5j, 1-(4-Bromophenyl)-2-((5-(2-(4-morpholinophenyl)-1H-benzo[d]imidazol-6-yl)-1,3,4-oxadiazol-2-yl) Thio) Ethan-1-One], the figures for the IC50 (on VEGFR-2 enzyme; in data set [1]; in data set [2]) were 0.098 ± 0.011 µM, 4.55 ± 0.763 µM and 9.66 ± 0.149 µM, respectively. The “Selectivity index (SI)” value in data set [2] is 0.47.

As for `N#Cc1ccc(C(=O)CSc2nnc(-c3ccc4nc(-c5ccc(N6CCOCC6)cc5)[nH]c4c3)o2)cc1` [5f, 4-(2-(5-(2-(4-Morpholinophenyl)-1H-benzo[d]imidazol-6-yl-1,3,4-oxadiazol-2-yl) Thio) Acetyl) Benzonitrile], the IC50 in data set [1] came to 14.7 ± 0.818 µM; in data set [2] it was 30.2 ± 1.16 µM. Moreover, in data set [2], the “Selectivity index (SI)” value is 0.49.

For the molecule `CNC(=O)c1cc(Oc2ccc(NC(=O)Nc3ccc(Cl)c(C(F)(F)F)c3)cc2)ccn1` [Sorafenib, reference compound], the values for the IC50 in data set [1] and in data set [2] were 30.13 ± 0.147 µM and 2.92 ± 0.214 µM, respectively.

Turning to `O=C(CSc1nnc(-c2ccc3nc(-c4ccc(N5CCOCC5)cc4)[nH]c3c2)o1)c1ccccc1` [5a, 2-(5-(2-(4-Morpholinophenyl)-1H-benzo[d]imidazol-6-yl)-1,3,4-oxadiazol-2-ylthio)-1-phenylethan-1-One], in data set [1], the IC50 amounted to 193 ± 7.56 µM. In addition, in data set [2], the IC50 worked out at 135 ± 3.37 µM and the “Selectivity index (SI)” value worked out at 1.42.

With `Cc1ccc(C(=O)CSc2nnc(-c3ccc4nc(-c5ccc(N6CCOCC6)cc5)[nH]c4c3)o2)cc1` [5b, 2-(5-(2-(4-Morpholinophenyl)-1H-benzo[d]imidazol-6-yl)-1,3,4-oxadiazol-2-ylthio)-1-(p-tolyl) Ethan-1-One], the IC50 in data set [1] is 10.5 ± 2.17 µM. Besides, in data set [2], the IC50 came out at 22.7 ± 2.39 µM and the “Selectivity index (SI)” value stood at 0.46.
